Where no end group is shown, it is not given here.
Experiments:
Format in all cases: binding, human
melanoma sera pool [1] = experiment: Peptide testing ELISA, unbiotinylated peptides coated on Nunc Maxisorp F plates; conditions: for absorbance (A405 nm): melanoma sera pool dilution 1:50
Procedure: FIG. 5: Reactivity of serum antibodies with 2 MERV specfic partial overlapping peptides (GHB-G1 and GHB-H1) and 1 autoimmune-related peptide (GHB-17′) tested with 3 different melanoma-sera and reference sera pool dilutions respectively. An HIV peptide was used as negative control peptide. All given A405 nm values refer to the measured A405 nm value of each sample minus the blank.
NUNC Maxisorp F plates were coated with 1.0 μg peptide/well in 100 μl coating buffer (0.1 M sodium carbonate buffer, pH 9.5). 1 well per plate was coated with 100 μl of coating buffer without antigen (blank well). Plates were incubated over night at 4° C. Then plates were washed four times with PEST. Unspecific binding sites were blocked with 200 μl/well of 2% bovine albumine (Sigma-Aldrich) in PBST (PBS+0.1% v/v Tween20 (PBST)) for 1 hour at room temperature. The plates were washed 4 times with PBST. For the assay 100 μl/well of three different sera pool-dilutions (1:50, 1:200, 1:1600) diluted in 1% bovine albumine/PBST were added and incubated for 2 h at room temperature. Plates were washed 4 times with PBST and incubated with 100 μl/well of the secondary antibody: goat anti-human IgG (h+l) antibody alkaline-phosphatase conjugated, obtained from BETHYL Laboratories, Inc., USA (detection antibody was diluted 1:1000 in blocking solution) for 1 hour. After additional 6 times washing step with PBST, color was developed with 200 μl/well of a 1.0 mg/ml p-Nitrophenylphosphat substrate solution in 0.2 M Tris-buffer (Sigma-Aldrich). Absorbance was measured on a BDSL Immunoskan PLUS at 405 nm.
The peptides were tested with the same sera pools as given for the experiments above. As negative control peptide an HIV-derived peptide ([…]) with 1 μg/well was used.
Herve et al. characterise retroviral peptides in the context of autoimmune diseases. […] All three peptides were tested with three melanoma sera pool dilutions ([…], 1:200 and 1:1600). Peptides were coated on Nunc Maxisorp F plates and used to capture serum antibodies, which were then detected using goat anti-human IgG antibodies as shown in FIG. 5. […] GHB-G1 gave a signal of 1.50 even at a melanoma: sera pool dilution 1:200.

melanoma sera pool [2] = experiment: Epitope screening ELISA of biotinylated peptides with melanoma sera pool; conditions: FIG. 2
Procedure: FIG. 2: Selected candidate peptides by Epitope prediction were tested with a melanoma sera pool and a reference sera pool respectively. The mouse derived control peptides K1 (Biotin-SGSG-KPLAQ-NH2) and K2 (Biotin-SGSG-GLAQ-NH2) were used as negative and positive control peptides. ELISA readout of patient sera pool (black bars) given as absorbance determined at 405 nm. All given A405 nm values refer to the measured A405 nm value of each sample minus the blank.
Serum specimens were collected from melanoma patients (diagnosis confirmed by histopathology) at the Department of Dermatology, Medical University of Vienna, Austria. Staging of patients and according classification of sera followed the 2001 US Joint Committee on Cancer guidelines (Balch 2001). Usage of patient sera was approved by the ethical committee of the Medical University of Vienna, confidentially of the study subjects has been protected by respective sample coding. Sera from healthy donors served as negative controls. All sera were stored at −20° C. immediately after blood withdrawal. Melanoma patient derived sera pools and respective reference sera pools from healthy subjects were used for epitope screening and further peptide testing.
Streptavidin-coated 96-well microtiter plates (Mimotopes Pty Ltd., Australia) were blocked with 200 μl/well of 2% bovine albumine (Sigma-Aldrich) in PBST (PBS [0.1 M sodium phosphate, 0.15 M NaCl, pH 7.0]+0.1% v/v Tween20 (PBST)) over night at 4° C. The wells were then washed four times with PBST and incubated with 100 μl/well of 1:500 diluted biotinylated peptides for 2 hours at room temperature. 2 wells per plate were incubated with PBST in the absence of peptide (blank wells). Plates were washed 4 times with PBST. Subsequently, 100 μl of a melanoma-sera pool, diluted 1:40 in 1% bovine albumine/PBST and a reference serum pool (1:40) were added to each well and incubated for 2 h at room temperature. The plate was washed 4 times with PBST and incubated with 100 μl/well of the secondary antibody: goat anti-human IgG (h+l) antibody alkaline-phosphatase conjugated (BETHYL Laboratories, Inc., USA). Detection antibody was diluted 1:1000 in blocking solution and incubated for 1 hour. After 6 washing steps with PBST, 200 μl of a 1.0 mg/ml p-Nitrophenylphosphat substrate solution in 0.2 M Tris-buffer (Sigma-Aldrich) was added to each well. Absorbance was measured on a BDSL Immunoskan PLUS at 405 nm.
During initial screening of various peptides reactive peptides to the melanoma patient derived sera pool were selected and also validated by determining the reactivity to the reference sera pool obtained from healthy volunteers. […] These peptides were tested to determine the experimental antigenicity.

melanoma sera pool [3] = experiment: Epitope mapping ELISA of 25 overlapping env-peptides (FIG. 4); conditions: A405 nm melanoma sera pool minus reference sera pool
Excerpt: FIG. 4: Epitope mapping of 25 overlapping env-peptides tested with a patient sera pool and a reference sera pool as described above. The first bar represents amino acid 204-220, the second bar represents amino acid 205-221, etc. Del A405 nm refers to the measured A405 nm values of the melanoma sera pool minus the A405 nm values of the reference sera pool of each peptide. One experiment of two performed is shown. Mean values from duplicate trials are shown.
Streptavidin-coated 96-well microtiter plates (Mimotopes Pty Ltd., Australia) were blocked with 200 μl/well of 2% bovine albumine (Sigma-Aldrich) in PBST (PBS [0.1 M sodium phosphate, 0.15 M NaCl, pH 7.0]+0.1% v/v Tween20 (PBST)) over night at 4° C. The wells were then washed four times with PBST and incubated with 100 μl/well of 1:500 diluted biotinylated peptides for 2 hours at room temperature. 2 wells per plate were incubated with PBST in the absence of peptide (blank wells). Plates were washed 4 times with PBST. Subsequently, 100 μl of a melanoma-sera pool, diluted 1:40 in 1% bovine albumine/PBST and a reference serum pool (1:40) were added to each well and incubated for 2 h at room temperature. […] Absorbance was measured on a BDSL Immunoskan PLUS at 405 nm. […]

[4] = test system: serum samples from melanoma patients; experiment: Optimised ELISA on individual serum samples from melanoma patients; conditions: 31 melanoma serum samples; positive = value of 0.39 or above
Procedure: NUNC Polysorp F Peptide Immobiliser plates were coated with 0.125 μg peptide/well in 100 μl coating buffer ((0.1 M sodium carbonate buffer, pH 9.5). Plates were incubated over night at 4° C. Plates were then washed four times with PBST and unspecific binding sites were blocked with 200 μl/well of 2% bovine albumine (Sigma-Aldrich) in PBST (PBS+0.1% v/v Tween20 (PBST)) for 1 hour at room temperature. The plates were washed 4 times with PBST. For the assay 100 μl/well of serial-dilutions of the sera (initial dilution 1:200 in 1% bovine albumine/PBST were added and incubated for 2 h at room temperature. Plates were washed 4 times with PEST and incubated with the secondary antibody (100 μl/well). As secondary antibody an alkaline-phosphatase conjugated goat anti-human IgG (h+1) (BETHYL Laboratories, Inc., USA) diluted 1:1000 in blocking solution was used. Incubation period was 1 hour. After another 6 washing steps with PBST, the substrate was added (1.0 mg/ml p-Nitrophenylphosphat Sigma-Aldrich) in 0.2 M Tris-buffer 200 μl/well) Absorbance was measured on a BDSL Immunoskan PLUS at 405 nm.
For analysis of serum samples from melanoma patients, Nunc Polysorp Immobilizer Amino plates were used. […] 16 serum samples from healthy individuals served as controls to establish a negative treshold, as calculated by the average absorbance plus three standard deviations. […]

Sequence | reactivity ranking among the 46 tested peptides (melanoma sera pool [2]) | absorbance (A405 nm) (melanoma sera pool [1]; FIG. 5) | also measured
SYQRSLKFRPKGKPCPKEIP (Melanoma Associated Endogenous Retrovirus) [SEQ ID NO 69, unbiotinylated 20-mer covering peptides 10-13, env aa 213-232] |  |  | reactivity compared to unbiotinylated 17-mer peptide G1 (melanoma sera pool [1]; unbiotinylated peptides, independent experiment): did not exhibit a significant improvement
FRPKGKPCPKEIPKESK (also: biotinylated (site not given here)) [Peptide H1, Env aa 220-236] | most reactive | above 0.50 | 
YQRSLKFRPKGKPCPKE (Melanoma Associated Endogenous Retrovirus) [Peptide G1, Env aa 214-230] | most reactive | ~1.50 | reactivity (Del A405 nm) (melanoma sera pool [3]): lower absorbance in the assay than the three neighbour peptides; absorbance signal (A405 nm) (melanoma sera pool [1]; melanoma sera pool dilution 1:200, FIG. 5): 1.50; melanoma sera that did not recognise the epitope [4]: 16; melanoma serum samples reacting positive [4]: 15 out of the 31
PAELQYRPPPESQYGYP (also: biotinylated (site not given here)) [Peptide E3, Gag aa 219-235] | most reactive |  | 
PWGWGEKGISTPRPKIV (also: biotinylated (site not given here)) [Peptide E2, Env aa 312-328] | most reactive |  | 
EMQRKAPPRRRRHRNRA (also: biotinylated (site not given here)) [Peptide A1, Env aa 5-21] | most reactive |  | 

From US20100285509A1, “Melanoma-Associated Endogenous Retrovirus (MERV) Derived Peptide Sequences And Their Therapeutic/Diagnostic Use” (priority 2005, published 2010)
